These results are taken from patent EP0806480A2, “Frenolicin gene cluster” (F. HOFFMANN-LA ROCHE AG, priority 1996, dated 1997).

The data set has as its system Streptomyces and other bacteria. Briefly: Toxicity of frenolicins to bacteria (comparative statement, no method described). To be noted: relative ranking among the frenolicins; qualitative only. In kind it is cell-based.

As to `CCC[C@H]1O[C@H](CC(=O)O)CC2=C1C(=O)c1c(O)cccc1C2=O` [deoxyfrenolicin], the “toxic to Streptomyces and other bacteria” value was “less toxic”.
frenolicin B [reference compound]: the “toxic to Streptomyces and other bacteria” value is “most toxic”.
The same measure for frenolicin epoxide: “even less so”.
